Results as given in the supplement of paper PMC10307832.

Experiments:
Assay in all cases: relative viability (nuclei count vs DMSO), 5 days (fraction); higher = more cells survive
NCI-H1563 = test system: NCI-H1563
Outline: (§1)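 Lung cancer cell lines, seeded in 1536-well plates, were treated the following day by pin tool with a single drug or with five library-drug doses (not always all listed) in √10 steps on top of a fixed anchor-drug dose. Cells were fixed and nuclei stained in one step after 5 days, and nuclei were counted. Relative viability is the nuclei count for treated wells divided by that for vehicle wells, reported as medians of duplicate plates.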

NCI-H3122 = test system: NCI-H3122
Outline: as §1

LC-2-ad = test system: LC-2-ad
Outline: as §1

HARA = test system: HARA
Outline: as §1

NCI-H647 = test system: NCI-H647
Outline: as §1

NCI-H1666 = test system: NCI-H1666
Outline: as §1

NCI-H1944 = test system: NCI-H1944
Outline: as §1

NCI-H1734 = test system: NCI-H1734
Outline: as §1

CAL-12T = test system: CAL-12T
Outline: as §1

NCI-H838 = test system: NCI-H838
Outline: as §1

NCI-H522 = test system: NCI-H522
Outline: as §1

H3255 = test system: H3255
Outline: as §1

COR-L 105 = test system: COR-L 105
Outline: as §1

SK-LU-1 = test system: SK-LU-1
Outline: as §1

NCI-H1993 = test system: NCI-H1993
Outline: as §1

HCC-366 = test system: HCC-366
Outline: as §1

NCI-H1975 = test system: NCI-H1975
Outline: as §1

NCI-H1395 = test system: NCI-H1395
Outline: as §1

PC-14 = test system: PC-14
Outline: as §1

LU99A = test system: LU99A
Outline: as §1

HCC-15 = test system: HCC-15
Outline: as §1

PC-3 [JPC-3] = test system: PC-3 [JPC-3]
Outline: as §1

Which relative viability (NCI-H1563; first compound 0.2 µM) does the source give for `COCC1(CO)C(=O)C2CCN1CC2` (configuration not stated) [PRIMA-1MET] + COc1cccc2cc(-c3nc([C@H]4CC[C@H](C(=O)O)CC4)n4ncnc(N)c34)[nH]c12 [OSI-027] (partner 0.5 µM) here?
Its relative viability is 0.854.

And the relative viability (NCI-H1563; first compound 0.6325 µM)?
The relative viability was 0.789.

What about the relative viability (NCI-H1563; first compound 2 µM) of the same molecule?
The relative viability was 0.735.

And the relative viability (NCI-H1563; first compound 6.325 µM)?
The relative viability was 0.744.

What about the relative viability (NCI-H1563; first compound 20 µM) of the same molecule?
The relative viability was 0.327.

What about the relative viability (NCI-H3122; first compound 0.2 µM) of the same molecule?
The relative viability was 0.594.

And the relative viability (NCI-H3122; first compound 0.6325 µM)?
Its relative viability is 0.871.

What about the relative viability (NCI-H3122; first compound 6.325 µM) of the same molecule?
Its relative viability is 0.74.

And the relative viability (NCI-H3122; first compound 20 µM)?
The relative viability was 0.831.

What about the relative viability (LC-2-ad; first compound 0.2 µM) of the same molecule?
The relative viability was 0.854.

And the relative viability (LC-2-ad; first compound 2 µM)?
Its relative viability is 0.729.

And the relative viability (LC-2-ad; first compound 6.325 µM)?
The relative viability was 0.898.

What about the relative viability (LC-2-ad; first compound 20 µM) of the same molecule?
Its relative viability is 0.819.

And the relative viability (HARA; first compound 0.2 µM)?
The relative viability was 0.463.

And the relative viability (HARA; first compound 0.6325 µM)?
Its relative viability is 0.48.

What about the relative viability (HARA; first compound 6.325 µM) of the same molecule?
Its relative viability is 0.59.

And the relative viability (HARA; first compound 20 µM)?
The relative viability was 0.417.

What about the relative viability (NCI-H647; first compound 0.2 µM) of the same molecule?
Its relative viability is 0.684.

And the relative viability (NCI-H647; first compound 0.6325 µM)?
Its relative viability is 0.837.

And the relative viability (NCI-H647; first compound 2 µM)?
Its relative viability is 0.508.

And the relative viability (NCI-H647; first compound 6.325 µM)?
The relative viability was 0.56.

And the relative viability (NCI-H647; first compound 20 µM)?
The relative viability was 0.105.

What about the relative viability (NCI-H1666; first compound 0.2 µM) of the same molecule?
Its relative viability is 0.791.

And the relative viability (NCI-H1666; first compound 0.6325 µM)?
The relative viability was 0.87.

And the relative viability (NCI-H1666; first compound 2 µM)?
Its relative viability is 0.827.

And the relative viability (NCI-H1666; first compound 6.325 µM)?
The relative viability was 0.826.

And the relative viability (NCI-H1666; first compound 20 µM)?
The relative viability was 0.714.

And the relative viability (NCI-H1944; first compound 0.2 µM)?
The relative viability was 0.408.

And the relative viability (NCI-H1944; first compound 0.6325 µM)?
Its relative viability is 0.359.

What about the relative viability (NCI-H1944; first compound 2 µM) of the same molecule?
Its relative viability is 0.3.

What about the relative viability (NCI-H1944; first compound 6.325 µM) of the same molecule?
The relative viability was 0.409.

And the relative viability (NCI-H1944; first compound 20 µM)?
Its relative viability is 0.393.

And the relative viability (NCI-H1734; first compound 0.2 µM)?
The relative viability was 0.709.

And the relative viability (NCI-H1734; first compound 0.6325 µM)?
The relative viability was 0.508.

What about the relative viability (NCI-H1734; first compound 2 µM) of the same molecule?
The relative viability was 0.413.

And the relative viability (NCI-H1734; first compound 6.325 µM)?
Its relative viability is 0.532.

And the relative viability (NCI-H1734; first compound 20 µM)?
Its relative viability is 0.0554.

And the relative viability (CAL-12T; first compound 0.2 µM)?
Its relative viability is 0.7.

What about the relative viability (CAL-12T; first compound 0.6325 µM) of the same molecule?
The relative viability was 0.608.

What about the relative viability (CAL-12T; first compound 2 µM) of the same molecule?
The relative viability was 0.807.

And the relative viability (CAL-12T; first compound 6.325 µM)?
The relative viability was 0.798.

What about the relative viability (CAL-12T; first compound 20 µM) of the same molecule?
The relative viability was 0.106.

What about the relative viability (NCI-H838; first compound 0.2 µM) of the same molecule?
Its relative viability is 0.428.

What about the relative viability (NCI-H838; first compound 0.6325 µM) of the same molecule?
Its relative viability is 0.5.

And the relative viability (NCI-H838; first compound 2 µM)?
The relative viability was 0.295.

What about the relative viability (NCI-H838; first compound 6.325 µM) of the same molecule?
Its relative viability is 0.395.

And the relative viability (NCI-H838; first compound 20 µM)?
Its relative viability is 0.0935.

What about the relative viability (NCI-H522; first compound 0.2 µM) of the same molecule?
The relative viability was 0.647.

And the relative viability (NCI-H522; first compound 0.6325 µM)?
The relative viability was 0.671.

What about the relative viability (NCI-H522; first compound 2 µM) of the same molecule?
The relative viability was 0.596.

And the relative viability (NCI-H522; first compound 6.325 µM)?
The relative viability was 0.836.

And the relative viability (NCI-H522; first compound 20 µM)?
Its relative viability is 0.13.

And the relative viability (H3255; first compound 0.2 µM)?
The relative viability was 0.642.

What about the relative viability (H3255; first compound 0.6325 µM) of the same molecule?
Its relative viability is 0.629.

What about the relative viability (H3255; first compound 2 µM) of the same molecule?
Its relative viability is 0.562.

What about the relative viability (H3255; first compound 6.325 µM) of the same molecule?
The relative viability was 0.658.

And the relative viability (H3255; first compound 20 µM)?
The relative viability was 0.498.

And the relative viability (COR-L 105; first compound 0.2 µM)?
Its relative viability is 0.899.

What about the relative viability (COR-L 105; first compound 0.6325 µM) of the same molecule?
Its relative viability is 0.66.

What about the relative viability (COR-L 105; first compound 2 µM) of the same molecule?
Its relative viability is 0.488.

What about the relative viability (COR-L 105; first compound 6.325 µM) of the same molecule?
Its relative viability is 0.662.

And the relative viability (COR-L 105; first compound 20 µM)?
The relative viability was 0.0915.

And the relative viability (SK-LU-1; first compound 0.2 µM)?
The relative viability was 0.321.

And the relative viability (SK-LU-1; first compound 0.6325 µM)?
The relative viability was 0.375.

And the relative viability (SK-LU-1; first compound 2 µM)?
Its relative viability is 0.256.

And the relative viability (SK-LU-1; first compound 6.325 µM)?
The relative viability was 0.338.

And the relative viability (SK-LU-1; first compound 20 µM)?
Its relative viability is 0.0616.

What about the relative viability (NCI-H1993; first compound 0.2 µM) of the same molecule?
The relative viability was 0.569.

What about the relative viability (NCI-H1993; first compound 0.6325 µM) of the same molecule?
The relative viability was 0.561.

And the relative viability (NCI-H1993; first compound 2 µM)?
The relative viability was 0.518.

What about the relative viability (NCI-H1993; first compound 6.325 µM) of the same molecule?
The relative viability was 0.532.

What about the relative viability (NCI-H1993; first compound 20 µM) of the same molecule?
The relative viability was 0.49.

And the relative viability (HCC-366; first compound 0.2 µM)?
Its relative viability is 0.389.

And the relative viability (HCC-366; first compound 0.6325 µM)?
The relative viability was 0.725.

What about the relative viability (HCC-366; first compound 2 µM) of the same molecule?
The relative viability was 0.303.

And the relative viability (HCC-366; first compound 6.325 µM)?
The relative viability was 1.01.

What about the relative viability (HCC-366; first compound 20 µM) of the same molecule?
The relative viability was 0.927.

What about the relative viability (NCI-H1975; first compound 0.2 µM) of the same molecule?
The relative viability was 0.879.

What about the relative viability (NCI-H1975; first compound 0.6325 µM) of the same molecule?
The relative viability was 0.62.

And the relative viability (NCI-H1975; first compound 2 µM)?
Its relative viability is 0.604.

And the relative viability (NCI-H1975; first compound 6.325 µM)?
Its relative viability is 0.777.

What about the relative viability (NCI-H1975; first compound 20 µM) of the same molecule?
The relative viability was 0.738.

What about the relative viability (NCI-H1395; first compound 0.2 µM) of the same molecule?
Its relative viability is 0.605.

And the relative viability (NCI-H1395; first compound 0.6325 µM)?
Its relative viability is 0.492.

What about the relative viability (NCI-H1395; first compound 2 µM) of the same molecule?
The relative viability was 0.647.

And the relative viability (NCI-H1395; first compound 6.325 µM)?
The relative viability was 0.659.

And the relative viability (NCI-H1395; first compound 20 µM)?
Its relative viability is 0.6.

What about the relative viability (PC-14; first compound 0.2 µM) of the same molecule?
The relative viability was 1.01.

What about the relative viability (PC-14; first compound 0.6325 µM) of the same molecule?
The relative viability was 0.779.

What about the relative viability (PC-14; first compound 2 µM) of the same molecule?
The relative viability was 0.975.

What about the relative viability (PC-14; first compound 6.325 µM) of the same molecule?
The relative viability was 0.848.

And the relative viability (PC-14; first compound 20 µM)?
The relative viability was 0.0163.

And the relative viability (LU99A; first compound 0.2 µM)?
Its relative viability is 0.322.

And the relative viability (LU99A; first compound 0.6325 µM)?
Its relative viability is 0.29.

What about the relative viability (LU99A; first compound 2 µM) of the same molecule?
Its relative viability is 0.292.

What about the relative viability (LU99A; first compound 6.325 µM) of the same molecule?
The relative viability was 0.268.

What about the relative viability (LU99A; first compound 20 µM) of the same molecule?
The relative viability was 0.0893.

What about the relative viability (HCC-15; first compound 0.2 µM) of the same molecule?
The relative viability was 0.534.

What about the relative viability (HCC-15; first compound 0.6325 µM) of the same molecule?
Its relative viability is 0.616.

What about the relative viability (HCC-15; first compound 2 µM) of the same molecule?
Its relative viability is 0.526.

What about the relative viability (HCC-15; first compound 6.325 µM) of the same molecule?
The relative viability was 0.559.

What about the relative viability (HCC-15; first compound 20 µM) of the same molecule?
Its relative viability is 0.439.

And the relative viability (PC-3 [JPC-3]; first compound 0.2 µM)?
Its relative viability is 0.709.

And the relative viability (PC-3 [JPC-3]; first compound 0.6325 µM)?
The relative viability was 0.747.

And the relative viability (PC-3 [JPC-3]; first compound 2 µM)?
The relative viability was 0.816.

And the relative viability (PC-3 [JPC-3]; first compound 6.325 µM)?
Its relative viability is 0.77.

And the relative viability (PC-3 [JPC-3]; first compound 20 µM)?
The relative viability was 0.792.
